Laboratory results published in paper PMC13476069, “Cryo-EM structure of the bicarbonate receptor GPR30” (eLife, 2026).

Assays:
[1] = target: T1, human GPR30 wild-type (WT) (Homo sapiens, UniProt Q99527); details: physiological concentration of bicarbonate ions; ref Jo-Watanabe et al., 2024; cited from earlier work
GPR30 H307^7.36 mutant = details: effect of H307^7.36 mutation; ref Jo-Watanabe et al., 2024; cited from earlier work
mock HEK293 cells = details: mock stable HEK293 cells; NaHCO3; normalized to 50 µM ATP; four-parameter fit
Protocol: (§1) HEK293A cells (Thermo Fisher Scientific, Cell lines are authenticated by the supplier. No additional authentication was performed by the authors in this study. Mycoplasma contamination is not tested.) were maintained at 37°C and 5% CO2. […] Stable cell lines were established through antibiotic drug selection. The HEK293A cells were transfected with the N-terminal HA-tagged wild-type and mutant Gpr30 and maintained in the culture medium containing 1 mg/ml of G418.
(§2) Stable HEK293 cells (2×10^4 cells/well) were seeded into a black wall and clear bottom 96-well plate 24 hr before the assay. […] The cells were washed twice with HEPES buffer. The cells were stimulated with indicated concentrations of NaHCO3 and 50 µM ATP at 37°C and 0.03% CO2. The fluorescence intensity was analyzed using FlexStation 3 (Molecular Devices, Ex/Em = 490/525 nm). The difference between the maximum and minimum fluorescent values during 15–60 s was normalized by those with ATP stimulation. Nonlinear regression (four-parameter) was used for curve fitting, and EC50 and Top (maximum response) were calculated.
(§3) Nonlinear regression (four-parameter) was used for curve-fitting over the data shown in Figure 3F, and EC50 and Top (maximum response) were calculated. The values of cell surface and total expression are derived from Figure 3.—figure supplement 1 and 3, respectively.

[2] = target: human GPR30 S134^3.29A mutant (Homo sapiens, UniProt Q99527, S134A); details: stable HEK293, HA-tagged S134^3.29A, NaHCO3, four-parameter fit
Chain of human GPR30 S134^3.29A mutant (Q99527 whole entry S134A): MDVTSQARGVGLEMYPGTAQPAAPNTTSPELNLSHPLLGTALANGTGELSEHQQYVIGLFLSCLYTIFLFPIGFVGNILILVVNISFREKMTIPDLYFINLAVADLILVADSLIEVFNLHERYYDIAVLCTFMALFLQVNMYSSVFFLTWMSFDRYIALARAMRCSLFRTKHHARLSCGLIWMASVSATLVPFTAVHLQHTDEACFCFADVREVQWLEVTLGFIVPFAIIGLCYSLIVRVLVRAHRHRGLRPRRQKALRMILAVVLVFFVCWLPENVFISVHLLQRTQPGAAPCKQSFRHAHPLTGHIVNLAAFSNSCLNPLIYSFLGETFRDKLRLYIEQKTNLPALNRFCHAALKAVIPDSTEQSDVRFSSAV
From the text: (§4) Human Gpr30 cDNA was obtained from human hepatoblastoma-derived HepG2 cells. The coding sequences of human Gpr30 were inserted into the multi-cloning site of the plasmid vector pCXN2, which was generated in our laboratory via modification of pCAGGS, between the KpnI and EcoRI sites. The […] HA-tagged Gpr30 was amplified using a reverse primer containing the HA sequence. One amino acid mutation of human GPR30 was generated as follows: the targeted amino acid was changed to alanine (GCC) using a two-step PCR method with the QuikChange Primer Design Program by Agilent (https://www.agilent.com/store/primerDesignProgram.jsp), and the coding sequence with each mutation was inserted into the multi-cloning site of pCXN2 between the KpnI and EcoRI sites. The mutations generated were D111A, E121A, R122A, D125A, S134A, Q138A, D210A, Q215A, E218A, N276A, Q296A, C207A, P71A, and H307A.
as §1, §2, §3

[3] = target: human GPR30 Q215^5.39A mutant (Homo sapiens, UniProt Q99527, Q215A); details: stable HEK293, HA-tagged Q215^5.39A, NaHCO3, four-parameter fit
Chain of human GPR30 Q215^5.39A mutant (Q99527 whole entry Q215A): as the sequence (Q99527 whole entry S134A) above, with A134S, Q215A counted along it
From the text: as §4, §1, §2, §3

[4] = target: T2, human GPR30 Q138^3.33A mutant (Homo sapiens, UniProt Q99527, Q138A)
T2 sequence (Q99527 whole entry Q138A): as the sequence (Q99527 whole entry S134A) above, with A134S, Q138A counted along it
From the text: as §4, §1, §2, §3

[5] = target: human GPR30 E121^ECL1A mutant (Homo sapiens, UniProt Q99527, E121A); details: stable HEK293, HA-tagged E121^ECL1A, NaHCO3, four-parameter fit
Chain of human GPR30 E121^ECL1A mutant (Q99527 whole entry E121A): as the sequence (Q99527 whole entry S134A) above, with E121A, A134S counted along it
From the text: as §4, §1, §2, §3

[6] = target: human GPR30 R122^ECL1A mutant (Homo sapiens, UniProt Q99527, R122A); details: stable HEK293, HA-tagged R122^ECL1A, NaHCO3, four-parameter fit
Chain of human GPR30 R122^ECL1A mutant (Q99527 whole entry R122A): as the sequence (Q99527 whole entry S134A) above, with R122A, A134S counted along it
From the text: as §4, §1, §2, §3

[7] = target: human GPR30 D125^ECL1A mutant (Homo sapiens, UniProt Q99527, D125A)
Chain of human GPR30 D125^ECL1A mutant (Q99527 whole entry D125A): as the sequence (Q99527 whole entry S134A) above, with D125A, A134S counted along it
From the text: as §4, §1, §2, §3

[8] = target: human GPR30 P71^1.44A mutant (Homo sapiens, UniProt Q99527, P71A)
Chain of human GPR30 P71^1.44A mutant (Q99527 whole entry P71A): as the sequence (Q99527 whole entry S134A) above, with P71A, A134S counted along it
From the text: as §4, §1, §2, §3

[9] = target: T1, human GPR30 wild-type (WT); details: stable HEK293, HA-tagged WT GPR30, NaHCO3, four-parameter fit
From the text: as §4, §1, §2, §3

[10] = target: human GPR30 D210^ECL2A mutant (Homo sapiens, UniProt Q99527, D210A)
Chain of human GPR30 D210^ECL2A mutant (Q99527 whole entry D210A): as the sequence (Q99527 whole entry S134A) above, with A134S, D210A counted along it
From the text: as §4, §1, §2, §3

[11] = target: human GPR30 E218^5.42A mutant (Homo sapiens, UniProt Q99527, E218A); details: stable HEK293, HA-tagged E218^5.42A, NaHCO3, four-parameter fit
Chain of human GPR30 E218^5.42A mutant (Q99527 whole entry E218A): as the sequence (Q99527 whole entry S134A) above, with A134S, E218A counted along it
From the text: as §4, §1, §2, §3

[12] = target: human GPR30 N276^6.52A mutant (Homo sapiens, UniProt Q99527, N276A); details: stable HEK293, HA-tagged N276^6.52A, NaHCO3, four-parameter fit
Chain of human GPR30 N276^6.52A mutant (Q99527 whole entry N276A): as the sequence (Q99527 whole entry S134A) above, with A134S, N276A counted along it
From the text: as §4, §1, §2, §3

[13] = target: human GPR30 Q296^ECL3A mutant (Homo sapiens, UniProt Q99527, Q296A); details: stable HEK293, HA-tagged Q296^ECL3A, NaHCO3, four-parameter fit
Chain of human GPR30 Q296^ECL3A mutant (Q99527 whole entry Q296A): as the sequence (Q99527 whole entry S134A) above, with A134S, Q296A counted along it
From the text: as §4, §1, §2, §3

[14] = target: human GPR30 C207^ECL2A mutant (Homo sapiens, UniProt Q99527, C207A)
Chain of human GPR30 C207^ECL2A mutant (Q99527 whole entry C207A): as the sequence (Q99527 whole entry S134A) above, with A134S, C207A counted along it
From the text: as §4, §1, §2, §3

[15] = target: human GPR30 D111^2.56A mutant (Homo sapiens, UniProt Q99527, D111A); details: stable HEK293, HA-tagged D111^2.56A, NaHCO3, four-parameter fit
Chain of human GPR30 D111^2.56A mutant (Q99527 whole entry D111A): as the sequence (Q99527 whole entry S134A) above, with D111A, A134S counted along it
From the text: as §4, §1, §2, §3

GPR30 E115^2.61 mutant = details: effect of E115^2.61 mutation; ref Jo-Watanabe et al., 2024; cited from earlier work
[16] = target: T2, human GPR30 Q138^3.33A mutant; details: effect of Q138^3.33 mutation; ref Jo-Watanabe et al., 2024; cited from earlier work
[17] = Q138^3.33A vs wild-type, calcium assay
[18] = stable HEK293, HA-tagged Q138^3.33A, NaHCO3, four-parameter fit
[19] = stable HEK293, HA-tagged D125^ECL1A, NaHCO3, four-parameter fit
[20] = stable HEK293, HA-tagged D210^ECL2A, NaHCO3, four-parameter fit

T1 sequence (Q99527 whole entry): as the sequence (Q99527 whole entry S134A) above, with A134S counted along it

O=C(O)O [bicarbonate]
activation of GPR30, Gq-coupled calcium responses [1]: activates
bicarbonate-dependent calcium response (GPR30 H307^7.36 mutant): abolish
Top (maximum response) (mock HEK293 cells): 0.08132
EC50 [2]: 4.97 mM
LogEC50 [2]: 0.6966
Top (maximum response) ([2]; normalized to 50 µM ATP): 0.8079
EC50 [3]: 4.51 mM
LogEC50 [3]: 0.6544
Top (maximum response) ([3]; normalized to 50 µM ATP): 0.8471
EC50 compared with wild-type GPR30 [4, 17]: higher
maximum response relative to GPR30 wild-type [4, 17]: one-third
reactivity to bicarbonate (calcium response) ([4]; effect of Q138^3.33A mutation, stable HEK293): reduced reactivity
EC50 [4, 18]: 10.8 mM
LogEC50 [4, 18]: 1.033
Top (maximum response) ([4]; stable HEK293, HA-tagged Q138^3.33A, NaHCO3, normalized to 50 µM ATP, four-parameter fit): 0.4166
EC50 [5]: 4.71 mM
LogEC50 [5]: 0.6733
Top (maximum response) ([5]; normalized to 50 µM ATP): 0.9457
EC50 [6]: 3.46 mM
LogEC50 [6]: 0.5393
Top (maximum response) ([6]; normalized to 50 µM ATP): 0.877
bicarbonate-dependent calcium responses ([7]; effect of D125^ECL1A mutation, stable HEK293): abolished
EC50 [7, 19]: Unstable
LogEC50 [7, 19]: Unstable
Top (maximum response) ([7]; stable HEK293, HA-tagged D125^ECL1A, NaHCO3, normalized to 50 µM ATP, four-parameter fit): 0.0868
bicarbonate-dependent calcium responses ([8]; effect of P71^1.44A mutation, stable HEK293): abolished
Top (maximum response) ([8]; stable HEK293, HA-tagged P71^1.44A, NaHCO3, normalized to 50 µM ATP, four-parameter fit): 0.1079
EC50 [9]: 3.83 mM
LogEC50 [9]: 0.5838
Top (maximum response) ([9]; normalized to 50 µM ATP): 1.155
maximum response relative to GPR30 wild-type ([10]; D210^ECL2A vs wild-type, calcium assay): half
reactivity to bicarbonate (calcium response) ([10]; effect of D210^ECL2A mutation, stable HEK293): reduced reactivity
EC50 [10, 20]: 5.41 mM
LogEC50 [10, 20]: 0.7335
Top (maximum response) ([10]; stable HEK293, HA-tagged D210^ECL2A, NaHCO3, normalized to 50 µM ATP, four-parameter fit): 0.6256
EC50 [11]: 3.72 mM
LogEC50 [11]: 0.5701
Top (maximum response) ([11]; normalized to 50 µM ATP): 0.9426
EC50 [12]: 2.89 mM
LogEC50 [12]: 0.4605
Top (maximum response) ([12]; normalized to 50 µM ATP): 0.948
EC50 [13]: 3.09 mM
LogEC50 [13]: 0.4903
Top (maximum response) ([13]; normalized to 50 µM ATP): 0.9637
bicarbonate-dependent calcium responses ([14]; effect of C207^ECL2A mutation, stable HEK293): abolished
Top (maximum response) ([14]; stable HEK293, HA-tagged C207^ECL2A, NaHCO3, normalized to 50 µM ATP, four-parameter fit): 0.06277
EC50 [15]: 2.35 mM
LogEC50 [15]: 0.3703
Top (maximum response) ([15]; normalized to 50 µM ATP): 1.244
bicarbonate-dependent calcium response (GPR30 E115^2.61 mutant): abolish
bicarbonate-dependent calcium response [16]: abolish
